Test results from patent US9765035B2 (priority 2013, dated 2017).
Like-named read-outs stand apart in the source and are kept apart here.

Tests used:
[1] = test system: RKO cells, mono-methyl arginine; test: RKO Methylation Assay (In Cell Western for mono-methyl arginine); format: cell-based; conditions: Homo sapiens, 72 hours
Text: RKO adherent cells were purchased from ATCC (American Type Culture Collection), Manassas, Va., USA. DMEM/Glutamax medium, penicillin-streptomycin, heat inactivated fetal bovine serum, 0.05% trypsin and D-PBS were purchased from Life Technologies, Grand Island, N.Y., USA. Odyssey blocking buffer, 800CW goat anti-rabbit IgG (H+L) antibody, and Licor Odyssey infrared scanner were purchased from Licor Biosciences, Lincoln, Nebr., USA. Mono-methyl arginine antibody was purchased from Cell Signaling Technology, Danvers, Mass., USA. Methanol was purchased from VWR, Franklin, Mass., USA. 10% Tween 20 was purchased from KPL, Inc., Gaithersburg, Md., USA. DRAQ5 was purchased from Biostatus Limited, Leicestershire, UK.
RKO adherent cells were maintained in growth medium (DMEM/Glutamax medium supplemented with 10% v/v heat inactivated fetal bovine serum and 100 units/mL penicillin-streptomycin) and cultured at 37° C. under 5% CO2.
Cell Treatment, in Cell Western (ICW) for Detection of Mono-Methyl Arginine and DNA Content. […] Compound (100 nL) from a 96-well source plate was added directly to 384 well cell plate. Plates were incubated at 37° C., 5% CO2 for 72 hours. After three days of incubation, plates were brought to room temperature outside of the incubator for ten minutes and blotted on paper towels to remove cell media. 50 μL of ice cold 100% methanol was added directly to each well and incubated for 30 min at room temperature. After 30 min, plates were transferred to a Biotek EL406 plate washer and washed 2 times with 100 μL per well of wash buffer (1×PBS). Next 60 μL per well of Odyssey blocking buffer (Odyssey Buffer with 0.1% Tween 20 (v/v)) were added to each plate and incubated 1 hour at room temperature. Blocking buffer was removed and 20 μL per well of primary antibody was added (mono-methyl arginine diluted 1:200 in Odyssey buffer with 0.1% Tween 20 (v/v)) and plates were incubated overnight (16 hours) at 4° C. Plates were washed 5 times with 100 μL per well of wash buffer. […] The plates were washed 5 times with 100 μL per well wash buffer then 2 times with 100 μL per well of water. Plates were allowed to dry at room temperature then imaged on the Licor Odyssey machine which measures integrated intensity at 700 nm and 800 nm wavelengths. Both 700 and 800 channels were scanned.
Calculations: First, the ratio for each well was determined by:
Each plate included fourteen control wells of DMSO only treatment (minimum activation) as well as fourteen control wells for maximum activation treated with 20 μM of a reference compound. The average of the ratio values for each control type was calculated and used to determine the percent activation for each test well in the plate. Reference compound was serially diluted three-fold in DMSO for a total of nine test concentrations, beginning at 20 μM. Percent activation was determined and EC30 curves were generated using triplicate wells per concentration of compound.

human PRMT6 = human PRMT6 (Homo sapiens, UniProt Q96LA8); test: biochemical
Chain of human PRMT6 (Q96LA8 with tags, fused parts or gaps): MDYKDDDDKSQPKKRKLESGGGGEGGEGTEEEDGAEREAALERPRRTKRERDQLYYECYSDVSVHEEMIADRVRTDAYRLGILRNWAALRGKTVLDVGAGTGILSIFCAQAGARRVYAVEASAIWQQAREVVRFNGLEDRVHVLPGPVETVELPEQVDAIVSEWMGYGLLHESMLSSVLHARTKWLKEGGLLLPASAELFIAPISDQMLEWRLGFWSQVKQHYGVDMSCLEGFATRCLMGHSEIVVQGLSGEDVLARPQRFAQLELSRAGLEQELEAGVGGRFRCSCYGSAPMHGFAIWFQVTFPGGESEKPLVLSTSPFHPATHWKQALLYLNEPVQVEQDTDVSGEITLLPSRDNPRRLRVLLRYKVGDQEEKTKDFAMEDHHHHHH
Text: General Materials. S-adenosylmethionine (SAM), S-adenosylhomocysteine (SAH), bicine, Tween20, dimethylsulfoxide (DMSO), bovine skin gelatin (BSG), sodium butyrate and Tris(2-carboxyethyl)phosphine hydrochloride solution (TCEP) were purchased from Sigma-Aldrich at the highest level of purity possible. ^3H-SAM was purchase from American Radiolabeled Chemicals with a specific activity of 80 Ci/mmol. 384-well streptavidin Flashplates were purchased from PerkinElmer.
Substrates. Peptide representative of human histone H4 residues 36-50 was synthesized with an N-terminal linker-affinity tag motif and a C-terminal amide cap by 21st Century Biochemicals. The peptide was purified by high-performance liquid chromatography (HPLC) to greater than 95% purity and confirmed by liquid chromatography mass spectrometry (LC-MS). The sequence was Biot-Ahx-[…]-amide and contained a monomethylated lysine at position 44 (SEQ ID NO.:5).
Molecular Biology: Full-length human PRMT6 (NM_018137.2) transcript clone was amplified from an HEK 293 cDNA library, incorporating a flanking 5′ sequence encoding a FLAG tag ([…]) (SEQ ID NO.:6) fused directly to Ser 2 of PRMT6 and a 3′ sequence encoding a hexa His sequence (HHHHHH) (SEQ ID NO.: 17) fused directly to Asp 375. The amplified gene was subcloned into pFastBacMam (Viva Biotech).
Protein Expression. Recombinant baculovirus were generated according to Bac-to-Bac kit instructions (Life Technologies). […] Infections were carried out at 37° C. for 48 hours, harvested by centrifugation, and stored at −80° C. for purification.
Protein Purification. […] Column was washed with 20 mM imidazole in the same buffer and Flag-PRMT6-His was eluted with 150 mM imidazole. Pooled fractions were dialysed against buffer Ni-A and further purified by anti-flag M2 affinity chromatography. Flag-PRMT6-His was eluted with 200 ug/ml FLAG peptide in the same buffer. Pooled fractions were dialysed in 20 mM Tris, 150 mM NaCl, 10% glycerol and 5 mM β-mercaptoethanol, pH 7.8. The purity of recovered protein was 95%.
General Procedure for PRMT6 Enzyme Assays on Peptide Substrates. The assays were all performed in a buffer consisting of 20 mM Bicine (pH=7.6), 1 mM TCEP, 0.005% BSG, and 0.002% Tween 20, prepared on the day of use. Compounds in 100% DMSO (1 ul) were spotted into a polypropylene 384-well V-bottom plates (Greiner) using a Platemate Plus outfitted with a 384-channel head (Thermo Scientific). DMSO (1 ul) was added to Columns 11, 12, 23, 24, rows A-H for the maximum signal control and 1 ul of SAH, a known product and inhibitor of PRMT6, was added to columns 11, 12, 23, 24, rows I-P for the minimum signal control. A cocktail (40 ul) containing the PRMT6 enzyme was added by Multidrop Combi (Thermo-Fisher). The compounds were allowed to incubate with PRMT6 for 30 min at room temperature, then a cocktail (10 ul) containing SAM and peptide was added to initiate the reaction (final volume=51 ul). The final concentrations of the components were as follows: PRMT6 was 1 nM, ^3H-SAM was 200 nM, non-radiolabeled SAM was 250 nM, peptide was 75 nM, SAH in the minimum signal control wells was 1 mM, and the DMSO concentration was 2%. The assays were stopped by the addition of non-radiolabeled SAM (10 ul) to a final concentration of 400 uM, which dilutes the ^3H-SAM to a level where its incorporation into the peptide substrate is no longer detectable. 50 ul of the reaction in the 384-well polypropylene plate was then transferred to a 384-well Flashplate and the biotinylated peptides were allowed to bind to the streptavidin surface for at least 1 hour before being washed once with 0.1% Tween20 in a Biotek EL×405 plate washer. The plates were then read in a PerkinElmer TopCount plate reader to measure the quantity of ^3H-labeled peptide bound to the Flashplate surface, measured as disintegrations per minute (dpm) or alternatively, referred to as counts per minute (cpm). […]

CNCCN(C)Cc1n[nH]c2ccc(OC(C)C(C)C)cc12 (stereo not shown) [Compound 4]
EC30 ([1]; In Cell Western EC30, RKO cells, single experiment or average of multiple experiments, read-out: RGG ICW): 1680 nM
EC30 ([1]; In Cell Western, RKO cells, read-out: RGG ICW EC30): < 3000 nM
IC50 (human PRMT6; biochemical evaluation, peptide substrate, read-out: PRMT6 IC50): < 100 nM
IC50 (human PRMT6; single experiment or average of multiple experiments, read-out: PRMT6 biochemical evaluation (numerical)): 36.4 nM
